# Assay results as given in US20250034216A1, “STEREOSELECTIVE COVALENT LIGANDS FOR ONCOGENIC AND IMMUNOLOGICAL PROTEINS” (The Scripps Research Institute, priority 2021, published 2025).
# What was measured:
# Experiment in all cases: IA-DTB cysteine engagement
# Assay type in all cases: binding
# KRTCAP3_C197 = target: T1, KRTCAP3_C197 (Homo sapiens, UniProt Q53RY4); details: 22Rv1 cells, 20 μM probe, 1 h, relative to DMSO
# T1 construct: endogenous in cells; host or cells: 22Rv1
# T1 sequence (Q53RY4 1-240): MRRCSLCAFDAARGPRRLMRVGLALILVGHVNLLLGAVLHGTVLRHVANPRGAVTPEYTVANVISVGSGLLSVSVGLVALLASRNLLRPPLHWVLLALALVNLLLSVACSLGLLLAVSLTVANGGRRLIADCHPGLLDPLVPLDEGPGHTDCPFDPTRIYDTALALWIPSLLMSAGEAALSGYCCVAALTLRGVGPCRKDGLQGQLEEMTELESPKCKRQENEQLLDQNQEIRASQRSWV
# Outline: (§1)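 First, cells are exposed to electrophilic probes in situ. Next, lysates are labeled with IA-DTB (1 h, ambient temperature), reduced, alkylated and trypsin-digested. Then, IA-DTB peptides are enriched on streptavidin, TMT-labeled and analyzed, with ratios taken against DMSO channels.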
# ABHD16A_C205 = target: T2, ABHD16A_C205 (Homo sapiens, UniProt O95870); details: 22Rv1 cells, relative to DMSO; for % engagement ABHD16A_C205: 20 μM probe, 1 h; for % engagement ABHD16A_205: 5 μM probe, 1 h (FIG. 5B)
# T2 construct: endogenous in cells; host or cells: 22Rv1
# T2 sequence (O95870 1-558): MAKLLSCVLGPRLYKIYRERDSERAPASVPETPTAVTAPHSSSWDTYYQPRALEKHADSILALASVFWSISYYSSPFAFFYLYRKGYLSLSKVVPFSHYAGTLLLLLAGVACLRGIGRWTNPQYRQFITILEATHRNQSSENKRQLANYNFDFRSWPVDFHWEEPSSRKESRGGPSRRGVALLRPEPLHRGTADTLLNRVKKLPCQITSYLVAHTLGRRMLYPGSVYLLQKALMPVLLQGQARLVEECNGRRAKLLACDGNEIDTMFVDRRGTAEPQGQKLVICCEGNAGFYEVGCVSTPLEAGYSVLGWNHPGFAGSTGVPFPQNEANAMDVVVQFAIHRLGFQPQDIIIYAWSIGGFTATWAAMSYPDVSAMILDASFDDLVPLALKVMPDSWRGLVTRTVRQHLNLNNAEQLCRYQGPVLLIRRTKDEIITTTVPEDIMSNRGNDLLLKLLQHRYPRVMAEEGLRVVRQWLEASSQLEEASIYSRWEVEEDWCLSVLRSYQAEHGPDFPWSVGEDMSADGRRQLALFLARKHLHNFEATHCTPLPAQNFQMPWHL
# Outline: as §1
# BCKDK_C118 = target: T3, BCKDK_C118 (Homo sapiens, UniProt O14874); details: 22Rv1 cells, 20 μM probe, 1 h, relative to DMSO
# T3 construct: endogenous in cells; host or cells: 22Rv1
# Outline: as §1
# PRXL2A_C88 = target: T4, PRXL2A_C88 (Homo sapiens, UniProt Q9BRX8); details: 22Rv1 cells, 20 μM probe, 1 h, relative to DMSO
# T4 construct: endogenous in cells; host or cells: 22Rv1
# T4 sequence (Q9BRX8 1-229): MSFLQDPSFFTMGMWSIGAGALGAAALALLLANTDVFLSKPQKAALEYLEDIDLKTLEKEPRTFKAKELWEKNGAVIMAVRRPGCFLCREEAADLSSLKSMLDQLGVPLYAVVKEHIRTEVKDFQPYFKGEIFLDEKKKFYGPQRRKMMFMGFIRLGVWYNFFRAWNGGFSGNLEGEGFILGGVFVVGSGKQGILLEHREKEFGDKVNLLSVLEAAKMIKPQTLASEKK
# Outline: as §1
% engagement KRTCAP3_C197 (KRTCAP3_C197) [%],% engagement ABHD16A_C205 (ABHD16A_C205) [%],% engagement BCKDK_C118 (BCKDK_C118) [%],% engagement PRXL2A_C88 (PRXL2A_C88) [%],% engagement ABHD16A_205 (ABHD16A_C205) [%],Compound
54,77.25,78.5,97.25,,"C=CC(=O)N1C[C@H](c2ccc(Br)cc2)[C@H]1C(=O)Nc1cccc2cccnc12 [MY-3B, (2S,3S)-1-acryloyl-3-(4-bromophenyl)-N-(quinolin-8-yl)azetidine-2-carboxamide]"
,,,,62.50,"CC#CC(=O)N1C[C@H](c2ccc(Br)cc2)[C@@H]1C(=O)Nc1cccc2cccnc12 [MY-45B, (2R,3S)-3-(4-bromophenyl)-1-(but-2-ynoyl)-N-(quinolin-8-yl)azetidine-2-carboxamide]"
69.5,80.25,57.75,97.25,83.67,"C=CC(=O)N1C[C@H](c2ccc(Br)cc2)[C@@H]1C(=O)Nc1cccc2cccnc12 [MY-1B, (2R,3S)-1-acryloyl-3-(4-bromophenyl)-N-(quinolin-8-yl)azetidine-2-carboxamide]"
31,73.25,43,95,,"C=CC(=O)N1C[C@H](c2ccc(Br)cc2)[C@H]1C(=O)Nc1cccc2cccnc12 [MY-3A, (2S,3S)-1-acryloyl-3-(4-bromophenyl)-N-(quinolin-8-yl)azetidine-2-carboxamide]"
61,67.75,55.5,96.25,,"C=CC(=O)N1C[C@@H](c2ccc(Br)cc2)[C@H]1C(=O)Nc1cccc2cccnc12 [MY-1A, (2S,3R)-1-acryloyl-3-(4-bromophenyl)-N-(quinolin-8-yl)azetidine-2-carboxamide]"
